Test results taken from paper PMC6253249, “Protein-Ligand Fishing in planta for Biologically Active Natural Products Using Glutathione Transferases” (Frontiers in Plant Science, 2018).
Blank lines part the entries; values can stand above or below the molecule they belong to.

Key:
AtGSTU19 [1] = target: T1, AtGSTU19 (Arabidopsis thaliana, UniProt Q9ZRW8); assay: Isothermal titration calorimetry (ITC) of ligand binding to AtGSTU19; details: 25°C, HBS, no cofactor listed
T1 construct: Strep-tag (N)
T1 sequence (Q9ZRW8 whole entry): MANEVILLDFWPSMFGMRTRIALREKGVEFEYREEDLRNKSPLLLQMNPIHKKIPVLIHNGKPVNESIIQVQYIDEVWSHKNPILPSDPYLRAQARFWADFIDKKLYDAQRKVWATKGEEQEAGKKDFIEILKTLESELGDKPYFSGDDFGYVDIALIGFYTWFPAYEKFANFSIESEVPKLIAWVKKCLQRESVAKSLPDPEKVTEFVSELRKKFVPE
Protocol: (§1) Isothermal titration calorimetry (ITC) experiments were performed at 25°C in HBS buffer and analyzed using a VP-ITC instrument with Origin 7.0 software (GE Healthcare, Amersham, United Kingdom). Where ligands were added in solvents, an equivalent volume of ethanol was used as control. With the flavonols, 0.1% w/v Tween 20 was used to increase ligand solubility. In addition to titrating ligand into protein, control titrations of ligand into buffer and buffer into protein were performed. For studies with AtGSTF2, the respective Strep-tagged protein was purified from E. coli grown in minimal medium to minimize contamination with pre-bound ligands and used in ITC assuming 1:1 binding to ligand, as previously determined ([Dixon et al., 2011]).
(§2) To investigate the binding characteristics of the ligands to the GSTs, isothermal titration calorimetry (ITC) was used to determine binding affinity and stoichiometry. With AtGSTF2 the commercially available compounds kaempferol and kaempferol-3,7′-dimethylether were used, along with the methylated flavonols purified from the surface of the tobacco leaves (Table 2 and Supplementary Figure S4). […] When AtGSTU19 was tested with ISSG, tight and stoichiometric binding was determined (Table 2 and Supplementary Figure S5). AtGSTU19 enzyme activity, as determined by the GSH conjugation of 1-chloro-2,4-dinitrobenzene, was inhibited by ISSG in a competitive manner with respect to GSH, confirming that ISSG binding occurred at the enzyme active site.
Supplementary Figure S5. Analysis of GSTU19 ligand binding by ITC.
Binding of ISSG to 11.1 uM GSTU19. A best fit line corresponding to a one set of
sites binding model is shown.

GSTUs from poppy = system: GSTUs from poppy; parameters: method as in Yu and Facchini, 2000; details: ref Yu and Facchini, 2000; cited from earlier work
GSTU19 = target: T2, GSTU19 (Arabidopsis thaliana, UniProt Q9ZRW8); assay: Isothermal titration calorimetry at 25 °C in HBS, ligand titrated into GSTU19, no GSH marked for these rows, one-set-of-sites fit.; type: binding; details: read-out: Ka (μM^-1) (converted)
T2 construct: recombinant, Strep-tagged
T2 sequence (Q9ZRW8 whole entry): as above
Protocol: as §1
as §2, with “stoichiometry.” for “stoichiometry. With AtGSTF2 the commercially available compounds kaempferol and kaempferol-3,7′-dimethylether were used, along with the methylated flavonols purified from the surface of the tobacco leaves (Table 2 and Supplementary Figure S4).”, “site. […]” for “site.”

AtGSTF2 = target: T3, AtGSTF2 (Arabidopsis thaliana, UniProt P46422); assay: Isothermal titration calorimetry (ITC) of ligand binding to Strep-tagged AtGSTF2; details: for N (binding stoichiometry) / ΔH: 25°C, HBS, 1 mM glutathione, 0.1% w/v Tween 20
T3 construct: Strep-tag (N); made in house; host or cells: Escherichia coli (minimal medium)
T3 sequence (P46422 1-212): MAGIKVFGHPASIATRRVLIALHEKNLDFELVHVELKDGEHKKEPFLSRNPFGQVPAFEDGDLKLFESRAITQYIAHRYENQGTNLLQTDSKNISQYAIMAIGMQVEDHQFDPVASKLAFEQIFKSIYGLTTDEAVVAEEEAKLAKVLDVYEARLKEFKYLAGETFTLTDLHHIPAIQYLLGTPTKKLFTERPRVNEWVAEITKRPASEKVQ
Protocol: as §1, §2
Supplementary Figure S4. Typical ITC data for GSTF2 (7.7 µM) binding to compound 11 (putative kaempferol-3,7’-dimethylether). The experiment was performed in HBS containing 1 mM GSH, 0.1% Tween 20 and 1% ethanol. The associated line indicates best fit curves for a one set of sites binding model.

AtGSTU19 [2] = target: T1, AtGSTU19; assay: AtGSTU19 enzyme activity, GSH conjugation of 1-chloro-2,4-dinitrobenzene, inhibition; type: biochemical; details: with respect to GSH; substrate 1-chloro-2,4-dinitrobenzene
Protocol: as §2

SMILES: COc1cc(/C=C/C(=O)NCCc2ccc(O)cc2)ccc1O [feruloyltyramine, N-trans-feruloyltyramine]
Inhibition of poppy GSTUs (in words) (GSTUs from poppy): weakly inhibiting

SMILES: COc1ccc(-c2oc3cc(OC)cc(O)c3c(=O)c2OC)cc1 [Compound 13, kaempferol-3,7,4′-trimethylether]
Kd (AtGSTF2): < 1000 nM
N (binding stoichiometry) (AtGSTF2): 0.54 ± 0.01
ΔH (AtGSTF2): -18.4 ± 0.2 kcal/mol

SMILES: COc1cc(O)c2c(=O)c(OC)c(-c3ccc(O)cc3)oc2c1 [Compound 11, kaempferol-3,7′-dimethylether]
Kd (AtGSTF2): 220 nM

SMILES: O=c1c(O)c(-c2ccc(O)cc2)oc2cc(O)cc(O)c12 [kaempferol, reference compound]
Kd (AtGSTF2): 12000 nM
N (binding stoichiometry) (AtGSTF2): 0.60 ± 0.05
ΔH (AtGSTF2): -12.6 ± 1.4 kcal/mol

Results, then the molecule that gave them:

N (binding stoichiometry) (AtGSTU19 [1]): 0.84 ± 0.01
ΔH (AtGSTU19 [1]): -11.8 ± 0.1 kcal/mol
SMILES: CCCCCCSC[C@H](NC(=O)CC[C@H](N)C(=O)O)C(=O)NCC(=O)O [S-hexylglutathione, reference compound]

Kd (GSTU19): 0.117 µM
SMILES: N[C@@H](CCC(=O)N[C@@H](CSSCc1c[nH]c2ccccc12)C(=O)NCC(=O)O)C(=O)O [ISSG, 3-methylindolyl glutathionyl disulfide]

Kd (GSTU19): 0.311 µM
SMILES: CCCCCCSC[C@H](NC(=O)CC[C@H](N)C(=O)O)C(=O)NCC(=O)O [S-hexylglutathione]

Mode of inhibition of AtGSTU19 enzyme activity (AtGSTU19 [2]): competitive
N (binding stoichiometry) (AtGSTU19 [1]): 0.98 ± 0.01
ΔH (AtGSTU19 [1]): -10.6 ± 0.1 kcal/mol
SMILES: NC(CCC(=O)NC(CSSCc1c[nH]c2ccccc12)C(=O)NCC(=O)O)C(=O)O (stereo not drawn) [ISSG, 3-methylindolyl glutathionyl disulfide]
